# Reference: patent publication US10428056B2, “Heterocyclic compound” (Takeda Pharmaceutical Company Limited, priority 2015, dated 2019)
# What was measured:
# [1] = target: T1, human M1 receptor (hCHRM1) (Homo sapiens, UniProt P11229); test: Measurement of M1 receptor positive allosteric modulator (M1PAM) activity, Ca fluorescence by FLIPRtetra (Experimental Example 1); assay type: cell-based; details: inflection point of concentration-dependent curve, CHO-K1 cells expressing hCHRM1, acetylcholine at EC20 (0.8-1.0 nM), read-out: IP value
# T1 construct: expressed in transfected cells; host or cells: CHO-K1
# T1 sequence (P11229 1-460): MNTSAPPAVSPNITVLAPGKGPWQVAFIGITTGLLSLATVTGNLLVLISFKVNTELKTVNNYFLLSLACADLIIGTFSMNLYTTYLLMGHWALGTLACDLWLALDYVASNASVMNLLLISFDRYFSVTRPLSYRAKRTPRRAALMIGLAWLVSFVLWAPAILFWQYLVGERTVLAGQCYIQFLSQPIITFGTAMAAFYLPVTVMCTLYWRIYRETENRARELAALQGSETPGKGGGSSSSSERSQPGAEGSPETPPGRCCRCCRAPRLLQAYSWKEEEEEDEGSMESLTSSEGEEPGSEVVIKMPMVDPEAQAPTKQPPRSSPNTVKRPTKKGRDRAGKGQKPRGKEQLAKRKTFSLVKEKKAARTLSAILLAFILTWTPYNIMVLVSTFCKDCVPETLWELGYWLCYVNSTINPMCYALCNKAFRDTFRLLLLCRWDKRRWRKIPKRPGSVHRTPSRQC
# Experimental: (§1) Measurement of M1 Receptor Positive Allosteric Modulator (M1PAM) Activity
# (§2) The activity of a test compound in the presence of acetylcholine at EC20 concentration (final concentration 0.8-1.0 nM), which affords an action corresponding to about 20% of the maximum activity, was measured as PAM activity. The method is as follows. CHO-K1 cells stably expressing a human M1 receptor (hCHRM1) were plated on a 384-well black clear bottom plate (BD Falcon) at 5,000 cells/well, and cultured in an incubator at 37° C., 5% CO2 for 1 day. […] A test compound prepared by diluting with assay buffer containing 3.2-4.0 nM acetylcholine was added at 10 μL/well, and the fluorescence was measured by FLIPRtetra (Molecular Devices) for 1 min every 1 second. With the definition that the amount of change in the fluorescence on addition of acetylcholine (final concentration 1 μM) is 100% and that on addition of DMSO instead of a test compound is 0%, the activity (%) of the test compound was calculated, and the inflection point in the concentration-dependent curve of the test compound was calculated as IP values.
# [2] = tested on: Scopolamine-induced memory deficits models; test: Novel object recognition test (Experimental Example 4); assay type: in vivo, male Long-Evans rats; details: 10 mg/kg oral single dose, scopolamine 0.1 mg/kg s.c.; retention trial 4 hr after acquisition; mean±standard error
# Experimental: Novel Object Recognition Test Novel object recognition test is comprised of two trials called the acquisition and the retention trials. Scopolamine-induced memory deficits models were used for the test, and animals used were male Long-Evans rats. On the day before the test, for acclimation, the rats were allowed to freely move about the test box (40×40×50 cm) for 10 minutes. On the test day, the rats were acclimated to the test room for about 1 hr prior to the test. The test compounds were orally administered to the rats in a single dose a given time before the acquisition trial. For induction of learning and memory deficits, scopolamine (0.1 mg/kg) was subcutaneously administered into the rats 30 min before the acquisition trial. For the acquisition trial, two identical objects (A1, A2) were placed in the test box. The rats were put in the test box for 3 min, and the duration exploring each object was measured. The retention trial was performed 4 hr after the acquisition trial. […] The duration for exploring each object in the acquisition trial and the retention trial was measured, and the exploration rate of novel object was calculated. The exploration rate of novel object was expressed as (the duration exploring the novel object)/[(the duration exploring the novel object)+(the duration exploring the familiar object)]×100(%) at mean±standard error.
# [3] = target: T1, human M1 receptor (hCHRM1); test: Measurement of M1 receptor positive allosteric modulator (M1PAM) activity, Ca fluorescence by FDSS/μ cell (Experimental Example 2); assay type: cell-based; details: inflection point of concentration-dependent curve, CHO-K1 cells expressing hCHRM1, acetylcholine at EC20 (0.8-1.0 nM), read-out: IP value
# Experimental: as §1
# as §2, with “FDSS/μ cell (Hamamatsu Photonics K.K.)” for “FLIPRtetra (Molecular Devices)”
structure (smiles),measurement,setting,value
"Cc1cc2c(cc1Cc1ccc(Cl)nc1)C(=O)N([C@H]1CCCC[C@@H]1O)CO2 (relative stereo) [Example 62, 6-((6-chloropyridin-3-yl)methyl)-3-(trans-2-hydroxycyclohexyl)-7-methyl-2,3-dihydro-4H-1,3-benzoxazin-4-one]",EC50,[1],27 nM
"Cc1ccc(Cc2cc3c(cc2C)OCN([C@H]2CCCC[C@@H]2O)C3=O)cn1 (single isomer, unassigned) [Example 28, 3-(trans-2-hydroxycyclohexyl)-7-methyl-6-((6-methylpyridin-3-yl)methyl)-2,3-dihydro-4H-1,3-benzoxazin-4-one]",exploration rate of novel object (%),[2],56.0±2.2%
"Cc1c(Cc2ccc(-n3cccn3)nc2)cc2c(c1Cl)OCN([C@H]1CCC[C@@H]1O)C2=O (single isomer, unassigned) [Example 97, 8-chloro-3-(trans-2-hydroxycyclopentyl)-7-methyl-6-((6-(1H-pyrazol-1-yl)pyridin-3-yl)methyl)-2,3-dihydro-4H-1,3-benzoxazin-4-one]",EC50,[3],6.8 nM
